This is an account of results in BindingDB's records for patent US20230303494 (Academy of Military Medical Sciences, 2023).

The target in this assay is Programmed cell death 1 ligand/protein 1 (Homo sapiens, UniProt Q9NZQ7+Q15116). As to the kind of experiment: Activity of Compounds to Inhibit PD-1/PD-L1 Interaction.
Programmed cell death 1 ligand/protein 1, sequence (Q9NZQ7 whole entry): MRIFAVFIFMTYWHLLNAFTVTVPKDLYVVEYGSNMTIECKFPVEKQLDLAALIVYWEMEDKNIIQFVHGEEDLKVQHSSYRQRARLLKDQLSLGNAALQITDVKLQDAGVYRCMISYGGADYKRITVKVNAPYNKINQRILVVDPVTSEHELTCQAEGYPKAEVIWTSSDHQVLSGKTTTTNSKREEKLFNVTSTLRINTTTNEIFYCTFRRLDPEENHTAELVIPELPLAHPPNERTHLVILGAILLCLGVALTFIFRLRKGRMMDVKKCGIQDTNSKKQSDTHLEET
Programmed cell death 1 ligand/protein 1, sequence (Q15116 whole entry): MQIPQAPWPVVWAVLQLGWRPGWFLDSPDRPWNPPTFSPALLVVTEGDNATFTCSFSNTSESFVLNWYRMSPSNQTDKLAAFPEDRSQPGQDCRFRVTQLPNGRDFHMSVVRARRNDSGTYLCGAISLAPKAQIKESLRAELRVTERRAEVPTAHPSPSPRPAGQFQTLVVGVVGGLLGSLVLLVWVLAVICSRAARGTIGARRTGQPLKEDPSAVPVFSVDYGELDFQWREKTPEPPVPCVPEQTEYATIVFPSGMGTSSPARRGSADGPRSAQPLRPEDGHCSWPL
As for `Cc1cc(CNC(CO)C(=O)O)c(OCc2cncc(C#N)c2)cc1NCc1cccc(-c2ccc3c(c2)OCCO3)c1C` (stereo unspecified) [US20230303494, Compound 35], the IC50 was 44 nM.
In turn, `Cc1c(CNc2cc(OCc3cncc(C#N)c3)c(CNC(CO)C(=O)O)cc2Cl)cccc1-c1ccc2c(c1)OCCO2` (stereo unspecified) [US20230303494, Compound 36] displayed an IC50 of 131 nM.
For `Cc1c(CNc2cc(OCc3cncc(C#N)c3)c(CNC(CO)C(=O)O)cc2Cl)cccc1-c1ccccc1` (stereo unspecified) [US20230303494, Compound 13], 26 nM corresponded to half-maximal inhibition (IC50).
`N#Cc1cncc(COc2cc(NCc3cccc(-c4ccccc4)c3Br)ccc2CNC(CO)C(=O)O)c1` (stereo unspecified) [US20230303494, Compound 31] registered an IC50 of 206 nM.
Take `COc1cc(NCc2cccc(-c3ccccc3)c2C)c(C)cc1CNC(CO)C(=O)O` (stereo unspecified) [US20230303494, Compound 14]: the half-inhibitory concentration (IC50) was determined as 253 nM.
Compound `Cc1cc(CNC(CO)C(=O)O)c(OCc2cncc(C#N)c2)cc1NCc1cccc(-c2ccccc2)c1Br` (stereo unspecified) [US20230303494, Compound 32] registered an IC50 of 31 nM.

By IC50 is commonly meant the point on the concentration scale where inhibition reaches its midpoint.
